Reference: the NIST ThermoML archive (doi:10.1016/j.tca.2015.06.017)

Assay: xn = mol fraction of the nth substance listed
Details: Liquid, Vibrating tube method

CCC(C)Cl (stereo not drawn) [2-chlorobutane] + CCCCCCC
mass density [kg/m3]
Details	303.15 K	313.15 K	323.15 K
100 kPa, x2 = 0.0524	847.91	836.56	825.09
100 kPa, x2 = 0.1018	835.49	824.33	813.02
100 kPa, x2 = 0.1968	813.06	802.22	791.28
100 kPa, x2 = 0.3006	790.36	779.88	769.26
100 kPa, x2 = 0.4029	769.73	759.54	749.24
100 kPa, x2 = 0.5017	751.19	741.34	731.3
100 kPa, x2 = 0.6008	733.91	724.36	714.64
100 kPa, x2 = 0.7023	717.52	708.18	698.73
100 kPa, x2 = 0.7977	703.14	694.03	684.8
100 kPa, x2 = 0.8986	688.99	680.16	671.19
100 kPa, x2 = 0.952	681.86	673.13	664.27
2000 kPa, x2 = 0.0524	850.2	839.05	827.83
2000 kPa, x2 = 0.1018	837.83	826.85	815.67
2000 kPa, x2 = 0.1968	815.38	804.68	793.94
2000 kPa, x2 = 0.3006	792.62	782.33	771.89
2000 kPa, x2 = 0.4029	771.9	761.96	751.76
2000 kPa, x2 = 0.5017	753.34	743.67	733.83
2000 kPa, x2 = 0.6008	736.05	726.67	717.08
2000 kPa, x2 = 0.7023	719.64	710.46	701.07
2000 kPa, x2 = 0.7977	705.19	696.31	687.1
2000 kPa, x2 = 0.8986	691.08	682.39	673.45
2000 kPa, x2 = 0.952	683.95	675.34	666.5
5000 kPa, x2 = 0.0524	853.75	842.87	831.91
5000 kPa, x2 = 0.1018	841.34	830.59	819.82
5000 kPa, x2 = 0.1968	818.82	808.31	797.9
5000 kPa, x2 = 0.3006	795.97	785.99	775.73
5000 kPa, x2 = 0.4029	775.25	765.53	755.62
5000 kPa, x2 = 0.5017	756.66	747.19	737.6
5000 kPa, x2 = 0.6008	739.33	730.09	720.78
5000 kPa, x2 = 0.7023	722.77	713.8	704.73
5000 kPa, x2 = 0.7977	708.3	699.58	690.71
5000 kPa, x2 = 0.8986	694.14	685.57	677.02
5000 kPa, x2 = 0.952	686.97	678.46	670.04
7000 kPa, x2 = 0.0524	856.02	845.3	834.54
7000 kPa, x2 = 0.1018	843.56	832.97	822.46
7000 kPa, x2 = 0.1968	820.99	810.78	800.49
7000 kPa, x2 = 0.3006	798.15	788.3	778.37
7000 kPa, x2 = 0.4029	777.41	767.84	758.11
7000 kPa, x2 = 0.5017	758.81	749.48	740.05
7000 kPa, x2 = 0.6008	741.44	732.35	723.19
7000 kPa, x2 = 0.7023	724.78	716.03	707.1
7000 kPa, x2 = 0.7977	710.27	701.8	693.06
7000 kPa, x2 = 0.8986	696.07	687.74	679.34
7000 kPa, x2 = 0.952	688.88	680.62	672.34
10000 kPa, x2 = 0.0524	859.35	848.77	838.27
10000 kPa, x2 = 0.1018	846.8	836.51	826.08
10000 kPa, x2 = 0.1968	824.17	814.23	804.11
10000 kPa, x2 = 0.3006	801.36	791.7	781.87
10000 kPa, x2 = 0.4029	780.55	771.16	761.62
10000 kPa, x2 = 0.5017	761.91	752.73	743.56
10000 kPa, x2 = 0.6008	744.48	735.56	726.61
10000 kPa, x2 = 0.7023	727.81	719.19	710.43
10000 kPa, x2 = 0.7977	713.22	704.84	696.28
10000 kPa, x2 = 0.8986	699	690.69	682.48
10000 kPa, x2 = 0.952	691.77	683.56	675.45
20000 kPa, x2 = 0.0524	869.52	859.69	849.8
20000 kPa, x2 = 0.1018	857	847.28	837.53
20000 kPa, x2 = 0.1968	834.1	824.81	815.4
20000 kPa, x2 = 0.3006	811.1	802.08	792.88
20000 kPa, x2 = 0.4029	790.07	781.34	772.5
20000 kPa, x2 = 0.5017	771.19	762.72	754.11
20000 kPa, x2 = 0.6008	753.6	745.36	737
20000 kPa, x2 = 0.7023	736.87	728.79	720.73
20000 kPa, x2 = 0.7977	722.07	714.29	706.35
20000 kPa, x2 = 0.8986	707.69	699.96	692.38
20000 kPa, x2 = 0.952	700.38	692.74	685.27
30000 kPa, x2 = 0.0524	878.79	869.48	860.04
30000 kPa, x2 = 0.1018	866.11	856.99	847.72
30000 kPa, x2 = 0.1968	843.05	834.35	825.47
30000 kPa, x2 = 0.3006	819.96	811.43	802.73
30000 kPa, x2 = 0.4029	798.75	790.51	782.02
30000 kPa, x2 = 0.5017	779.74	771.71	763.53
30000 kPa, x2 = 0.6008	761.98	754.16	746.23
30000 kPa, x2 = 0.7023	745.03	737.41	729.67
30000 kPa, x2 = 0.7977	730.14	722.74	715.26
30000 kPa, x2 = 0.8986	715.59	708.23	700.97
30000 kPa, x2 = 0.952	708.22	700.93	693.82
40000 kPa, x2 = 0.0524	887.22	878.27	869.34
40000 kPa, x2 = 0.1018	874.41	865.7	856.96
40000 kPa, x2 = 0.1968	851.38	842.91	834.4
40000 kPa, x2 = 0.3006	827.93	819.81	811.6
40000 kPa, x2 = 0.4029	806.62	798.72	790.72
40000 kPa, x2 = 0.5017	787.49	779.77	772.1
40000 kPa, x2 = 0.6008	769.55	762.09	754.63
40000 kPa, x2 = 0.7023	752.43	745.16	737.89
40000 kPa, x2 = 0.7977	737.42	730.38	723.24
40000 kPa, x2 = 0.8986	722.69	715.74	708.82
40000 kPa, x2 = 0.952	715.28	708.38	701.63
50000 kPa, x2 = 0.0524	894.96	886.46	877.82
50000 kPa, x2 = 0.1018	882.16	873.81	865.47
50000 kPa, x2 = 0.1968	858.96	850.85	842.71
50000 kPa, x2 = 0.3006	835.46	827.58	819.72
50000 kPa, x2 = 0.4029	813.98	806.37	798.76
50000 kPa, x2 = 0.5017	794.72	787.33	779.9
50000 kPa, x2 = 0.6008	776.69	769.48	762.28
50000 kPa, x2 = 0.7023	759.44	752.43	745.43
50000 kPa, x2 = 0.7977	744.29	737.47	730.63
50000 kPa, x2 = 0.8986	729.42	722.77	716.08
50000 kPa, x2 = 0.952	721.96	715.34	708.79
60000 kPa, x2 = 0.0524	902.31	894.03	885.83
60000 kPa, x2 = 0.1018	889.34	881.29	873.29
60000 kPa, x2 = 0.1968	866.09	858.17	850.37
60000 kPa, x2 = 0.3006	842.43	834.83	827.3
60000 kPa, x2 = 0.4029	820.82	813.47	806.2
60000 kPa, x2 = 0.5017	801.47	794.34	787.21
60000 kPa, x2 = 0.6008	783.34	776.43	769.46
60000 kPa, x2 = 0.7023	766	759.35	752.51
60000 kPa, x2 = 0.7977	750.71	744.21	737.59
60000 kPa, x2 = 0.8986	735.66	729.29	722.89
60000 kPa, x2 = 0.952	728.17	721.82	715.52
65000 kPa, x2 = 0.0524	905.77	897.67	889.59
65000 kPa, x2 = 0.1018	892.87	884.92	877.02
65000 kPa, x2 = 0.1968	869.57	861.74	854.06
65000 kPa, x2 = 0.3006	845.82	838.38	830.95
65000 kPa, x2 = 0.4029	824.21	816.9	809.85
65000 kPa, x2 = 0.5017	804.75	797.7	790.81
65000 kPa, x2 = 0.6008	786.56	779.7	772.98
65000 kPa, x2 = 0.7023	769.12	762.47	755.89
65000 kPa, x2 = 0.7977	753.9	747.31	740.95
65000 kPa, x2 = 0.8986	738.65	732.32	726.04
65000 kPa, x2 = 0.952	731.1	724.77	718.69
